Test system: library of 8,380 IKZF3 degrons (ZF-eGFP/mCherry reporter) in Jurkat cells
Test: Pooled library screen (FACS, NGS, limma voom LogFC of positive vs negative read counts)
Type: cell-based, human
Description: A library of 8,380 IKZF3 degrons was cloned into pLVX-Sprout to create the eGFP/mCherry protein degradation reporter plasmid pool. A lentivirus pool was then generated using the Lenti-X lentiviral vector production method.
Jurkat cells were transduced at a multiplicity of infection of <0.3 with the lentivirus vector library in order to maximise the number of cells with a single integration. Transductions were carried out in 6 well TC-treated cell culture dishes (Falcon) with 3×10^6 cells per well. Cells were incubated for 2 days at 37° C. and 5% CO2 before the supernatant was removed and replaced with fresh media. 6 days post-transduction, mCherry+ cells were isolated via FACS using the FACS Aria Fusion (BD) in a buffer containing PBS (Gibco), 2 mM EDTA (Gibco), 25 mM HEPES (Sigma) and 1% BSA (Sigma). 8 days later, cells were treated with DMSO or a thalidomide analog for 18 hours at 37° C. and 5% CO2. mCherry+GFPlow and NOT(mCherry+GFPlow) cells were sorted by FACS using the FACS Aria Fusion (BD). DMSO treated cells were used to set the mCherry+GFPlow gate and dead cells were excluded from sorting by staining cells with 1 μg/mL DAPI (ThermoFisher). gDNA was isolated using the Maxwell RSC 48 (Promega). gDNA from cells that were unsorted and untreated were also isolated to determine the library representation on the day of compound treatment. Throughout the screen >600× coverage of the library was maintained. 3 biological replicates were carried out with a new transduction taking place each time.
A two-step PCR was used where the first PCR (PCR1) amplified the integrated degron sequence from gDNA and the second PCR (PCR2) added Illumina adaptors and barcodes to permit multiplexing. See Supp F for PCR1 and PCR2 primers. Q5 Hot Start High-Fidelity 2× Master Mix (New England Biolabs) was used for both PCRs. Sufficient gDNA was amplified in PCR1 in order to maintain >600× coverage and amplicons were purified using solid phase reversible immobilization (SPRI) beads (Beckman Coulter). Purified PCR1 products were analysed on the Tapestation 4200 (Agilent) to confirm purity prior to proceeding to PCR2. Sufficient PCR1 product was amplified in PCR2 in order to maintain >600× coverage and amplicons were run on a 2% agarose TAE gel. Target bands were excised and purified using the NucleoSpin Gel and PCR Clean-up Kit (Machery Nagel). Amplicons were analysed on the Tapestation 4200 and quantified using Qubit dsDNA HS kit (ThermoFisher). PCR products were pooled and sequenced as paired-reads on the NovaSeq (Illumina) using a SP2 200 cycles kit (Illumina).
Count distributions, percentage of read mapping, library coverage and replicate correlation per sample were assessed for QC purposes.
To carry out the library screen, we used the same plasmid construct as in our earlier flow cytometry assays, but pooling all 8,380 mutants together into one Jurkat population, ensuring a copy number of one plasmid per cell (FIG. 4B). […] These GFP-negative cells were then separated from the remaining GFP-positive population using fluorescence activated cell sorting (FACS). These two populations were then sequenced and the relative abundance of every mutant in both populations compared to provide a log FC value for each mutant sequence. This value indicated how frequently a sequence is observed in the GFP-negative population relative to the GFP-positive population, and therefore how effective a degron it is for that particular IMID compound.

`O=C1CCC(N2C(=O)c3ccc(N4CCOCC4)cc3C2=O)C(=O)N1` (centres unmarked) [B03] showed a B03_logFC (Degron-ID 4175, SEQ ID NO 3945, 46F_47W_49E_50Q_52G_53A_54S_55F_67L) of 2.767, a B03_logFC (Degron-ID 4189, SEQ ID NO 3997, 46F_47W_49E_50V_52G_53A_54L_55F_67L) of 2.69 and a B03_logFC (Degron-ID 4212, SEQ ID NO 4019, 46F_47W_49N_50I_52G_53A_54P_55F_67L) of 2.659. The B03_logFC (Degron-ID 4216, SEQ ID NO 3948, 46F_47W_49N_50I_52G_53A_54T_55F_67L) was 2.757, the B03_logFC (Degron-ID 4217, SEQ ID NO 3953, 46F_47W_49N_50I_52G_53A_54V_55F_67L) was 2.75 and the B03_logFC (Degron-ID 4265, SEQ ID NO 3969, 46F_47W_49P_50I_52G_53A_54G_55F_67L) was 2.729. For the same compound, the B03_logFC (Degron-ID 4267, SEQ ID NO 4028, 46F_47W_49P_50I_52G_53A_54I_55F_67L) was 2.643, the B03_logFC (Degron-ID 4270, SEQ ID NO 3946, 46F_47W_49P_50I_52G_53A_54M_55F_67L) was 2.765 and the B03_logFC (Degron-ID 4279, SEQ ID NO 3996, 46F_47W_49P_50I_52G_53A_54Y_55F_67L) was 2.691. For the same compound, the B03_logFC (Degron-ID 4307, SEQ ID NO 3975, 46F_47W_49P_50V_52G_53A_54I_55F_67L) was 2.72, the B03_logFC (Degron-ID 4366, SEQ ID NO 3950, 46F_47Y_49D_50V_52G_53A_54H_55F_67L) was 2.757 and the B03_logFC (Degron-ID 4368, SEQ ID NO 4018, 46F_47Y_49D_50V_52G_53A_54K_55F_67L) was 2.66. For the same compound, the B03_logFC (Degron-ID 4456, SEQ ID NO 4010, 46F_47Y_49N_50I_52G_53A_54T_55F_67L) was 2.672, the B03_logFC (Degron-ID 4503, SEQ ID NO 4007, 46F_47Y_49P_50I_52G_53A_54E_55F_67L) was 2.675 and the B03_logFC (Degron-ID 4510, SEQ ID NO 3967, 46F_47Y_49P_50I_52G_53A_54M_55F_67L) was 2.732. For the same compound, the B03_logFC (Degron-ID 4544, SEQ ID NO 4004, 46F_47Y_49P_50V_52G_53A_54F_55F_67L) was 2.679, the B03_logFC (Degron-ID 4559, SEQ ID NO 4033, 46F_47Y_49P_50V_52G_53A_54Y_55F_67L) was 2.636 and the B03_logFC (Degron-ID 6474, SEQ ID NO 3991, 46L_47A_49P_50I_52G_53F_54R_55C_67L) was 2.7. For the same compound, the B03_logFC (Degron-ID 6480, SEQ ID NO 4002, 46L_47C_49P_50I_52G_53F_54A_55C_67L) was 2.685, the B03_logFC (Degron-ID 6494, SEQ ID NO 4012, 46L_47C_49P_50I_52G_53F_54R_55C_67L) was 2.668 and the B03_logFC (Degron-ID 6496, SEQ ID NO 3983, 46L_47C_49P_50I_52G_53F_54T_55C_67L) was 2.713. The B03_logFC (Degron-ID 6544, SEQ ID NO 3994, 46L_47F_49P_50I_52G_53F_54F_55C_67L) was 2.694, the B03_logFC (Degron-ID 6545, SEQ ID NO 3958, 46L_47F_49P_50I_52G_53F_54G_55C_67L) was 2.743 and the B03_logFC (Degron-ID 6547, SEQ ID NO 3973, 46L_47F_49P_50I_52G_53F_54I_55C_67L) was 2.724. It also gave a B03_logFC (Degron-ID 6559, SEQ ID NO 3972, 46L_47F_49P_50I_52G_53F_54Y_55C_67L) of 2.725, a B03_logFC (Degron-ID 6579, SEQ ID NO 3987, 46L_47G_49P_50I_52G_53F_54Y_55C_67L) of 2.704 and a B03_logFC (Degron-ID 6581, SEQ ID NO 3985, 46L_47H_49P_50I_52G_53F_54C_55C_67L) of 2.71. It also gave a B03_logFC (Degron-ID 6593, SEQ ID NO 4008, 46L_47H_49P_50I_52G_53F_54Q_55C_67L) of 2.674, a B03_logFC (Degron-ID 6600, SEQ ID NO 3995, 46L_47I_49P_50I_52G_53F_54A_55C_67L) of 2.692 and a B03_logFC (Degron-ID 6715, SEQ ID NO 3949, 46L_47Q_49P_50I_52G_53F_54S_55C_67L) of 2.757. For the same compound, the B03_logFC (Degron-ID 6759, SEQ ID NO 4005, 46L_47S_49P_50I_52G_53F_54Y_55C_67L) was 2.677, the B03_logFC (Degron-ID 6761, SEQ ID NO 4009, 46L_47T_49P_50I_52G_53F_54C_55C_67L) was 2.672 and the B03_logFC (Degron-ID 6793, SEQ ID NO 3980, 46L_47V_49P_50I_52G_53F_54Q_55C_67L) was 2.717. It also gave a B03_logFC (Degron-ID 6803, SEQ ID NO 4032, 46L_47W_49P_50I_52G_53F_54E_55C_67L) of 2.637, a B03_logFC (Degron-ID 6807, SEQ ID NO 3992, 46L_47W_49P_50I_52G_53F_54I_55C_67L) of 2.695 and a B03_logFC (Degron-ID 7568, SEQ ID NO 3954, 46F_47W_49E_50I_52G_53R_54K_55F_67L) of 2.75. It also gave a B03_logFC (Degron-ID 7574, SEQ ID NO 3993, 46F_47W_49E_50I_52G_53R_54R_55F_67L) of 2.695, a B03_logFC (Degron-ID 7699, SEQ ID NO 3976, 46L_47F_49E_50I_52G_53F_54Y_55C_67L) of 2.72 and a B03_logFC (Degron-ID 7894, SEQ ID NO 3947, 46L_47S_49E_50I_52G_53F_54R_55C_67L) of 2.76. The B03_logFC (Degron-ID 7920, SEQ ID NO 3990, 46L_47V_49E_50I_52G_53F_54A_55C_67L) was 2.702, the B03_logFC (Degron-ID 7971, SEQ ID NO 3955, 46L_47Y_49E_50I_52G_53F_54N_55C_67L) was 2.749 and the B03_logFC (degron 1074 (SEQ ID NO 3496) 46F_47F_49E_50V_52G_53A_54R_55F_67L) was 3.71. The B03_logFC (degron 4088 (SEQ ID NO 3502) 46F_47W_49D_50I_52G_53A_54K_55F_67L) was 3.696, the B03_logFC (degron 4091 (SEQ ID NO 3497) 46F_47W_49D_50I_52G_53A_54N_55F_67L) was 3.708 and the B03_logFC (degron 4395 (SEQ ID NO 3500) 46F_47Y_49E_50I_52G_53A_54S_55F_67L) was 3.7. The B03_logFC (degron 4420 (SEQ ID NO 3499) 46F_47Y_49E_50V_52G_53A_54A_55F_67L) was 3.704, the B03_logFC (degron 4551 (SEQ ID NO 3503) 46F_47Y_49P_50V_52G_53A_54N_55F_67L) was 3.692 and the B03_logFC (degron 6814 (SEQ ID NO 3498) 46L_47W_49P_50I_52G_53F_54R_55C_67L) was 3.704. For the same compound, the B03_logFC (degron 7973 (SEQ ID NO 3495) 46L_47Y_49E_50I_52G_53F_54Q_55C_67L) was 3.711 and the B03_logFC (degron 7975 (SEQ ID NO 3501) 46L_47Y_49E_50I_52G_53F_54S_55C_67L) was 3.698.

— patent US20260284208A1, “SYSTEM” (Oxford University Innovation Limited, priority 2023, published 2026)
